Consider two molecules from patent US8435962B2, “Triacetyl-3-hydroxyphenyladenosine and its use for regulating blood fat” (Institute of Mataria Medica, Chinese Academy of Medical …, priority 2009, dated 2013).

Molecules are shown by their SMILES.

Data set [1] has as its system hyperlipidemia hamsters. In words: Serum lipid level in hyperlipidemic hamsters after drug discontinuance (2 weeks). Format: in vivo, hamster. The following applies: hamsters, 2 weeks after drug discontinuance, high-fat diet continued.
Description: (§2) After a week of accommodation, except control group (n=12) all the hamsters (n=72) were fed with high-fat laboratory chow.
(§3) After four weeks high-fat diet modeling, rats were treated with different drugs by intragastric administration. Control animals received an equal volume of vehicle.
(§4) At the end of 4 weeks drug treatment, animals were fasted for 12 hours (10 of each group). The next day, they were anesthetized by intraperitoneal injection of pentobarbitale sodium (45 mg/kg). Blood samples were collected from the abdominal aorta within 15 min, and plasma was separated. Plasma TC, TG, HDL-C, LDL-C, ALT, FFA were detected. Liver and the retroperitoneal fat were separated and weighed, the liver and fat index were calculated. Liver SOD and MDA were detected by kit after homogenized. The left hamsters (10 each group) drug treatment was withdrawn while high-fat diet modeling continued. Two weeks later, blood sample was collected from the orbit and serum TC and TG were detected.
In data set [2] the test system is hyperlipidemia rats. As to the kind of experiment: Effects on plasma lipid in hyperlipidemia rats (high-fat diet).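 Note: rats kept on high-fat chow for 4 weeks before dosing, serum taken from abdominal aorta after a 12 h fast at end of treatment, controls given vehicle.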 The note with it: 4 weeks. Format: in vivo, rat.
Description: (§5) After a week of accommodation, except control group (20 rat), all the rats (120 rats) were fed with high-fat laboratory chow.
as §3
(§6) At the end of 4 weeks drug treatment, animals were fasted for 12 hours before anesthetizing by intraperitoneal injection of pentobarbitale sodium (45 mg/kg), and anticoagulated by 100 U/kg heparin through caudal vein injection. Blood samples were collected from the abdominal aorta within 15 min, and serum was separated. Serum TC, TG, HDL-C, LDL-C, ALT, FFA were detected. Liver and the fat pad behind the belly were separated and weighed, the liver and retroperitoneal fat were weighed too. […] The left rats (10 rats each group) drug treatment was withdrawn while high-fat diet modeling continued. Two weeks later, blood sample was collected from the orbit, and serum TC, TG were detected.
Data set [3] concerns hyperlipidemia hamsters. As to the kind of experiment: Effects on plasma lipid in hyperlipidemia hamsters (high-fat diet).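 Note: hamsters given high-fat chow for four weeks, then dosed by gavage, plasma lipids measured in abdominal aortic blood after a 12 h fast, compared with vehicle-treated controls.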 The note with it: 4 weeks. In kind it is in vivo, hamster.
Description: as §2, §3, §4
Data set [4] deals with hyperlipidemia rats. As to the kind of experiment: Effects on hepatic SOD activity and MDA content of hyperlipidemia rats. Format: in vivo, rat. The note with it: 4 weeks. The text has this:
(§1) Control animals received an equal volume of vehicle.

The subject of data set [5] is hyperlipidemia rats. In words: Effects on retroperitoneal fat weight of hyperlipidemic rats. The following applies: hyperlipidemic rats, 4 weeks. Format: in vivo, rat.
Description: as §1

Data set [6] concerns hyperlipidemia rats. As to the kind of experiment: Effects on liver weight and serum ALT activity of hyperlipidemia rats. The following applies: 4 weeks.
Description: as §5, §3, §6
Data set [7] has as its system hyperlipidemia rats. The note with it: rat, in vivo, 50 mg/kg.
Description: as §5, §3, §6
For data set [8], the system named is hyperlipidemia rats. As to the kind of experiment: Serum lipid of hyperlipidemia rats after withdrawal from drugs for 2 weeks. In kind it is in vivo, rat. The note with it: rats, 2 weeks after drug withdrawal, high-fat diet continued.
Description: as §5, §3, §6
For data set [9], the system named is hyperlipidemia hamsters. The note with it: hamster, in vivo, 50 mg/kg.
Description: as §2, §3, §4
Data set [10] deals with hyperlipidemia hamsters. As to the kind of experiment: Effects on hepatic SOD activity and MDA concentration in hyperlipidemic hamsters' livers. Format: in vivo, hamster. The following applies: 4 weeks.
Description: as §2, §3, §4
Data set [11] concerns hyperlipidemia hamsters. In words: Effect on retroperitoneal fat of hyperlipidemia hamsters. In kind it is in vivo, hamster. The note with it: 2 mg/kg intragastric, 4 weeks.
Description: as §2, §3, §4

In [1] (50 mg/kg), `CC(C)OC(=O)C(C)(C)Oc1ccc(C(=O)c2ccc(Cl)cc2)cc1` [Fenofibrate, reference compound] gave a TC of 5.29 ± 2.13 mmol/L and a TG of 4.16 ± 0.86 mmol/L. Besides, in data set [2] (50 mg/kg intragastric), the FFA is on record as 1.13 ± 0.30 mmol/L, the HDL-C amounted to 0.59 ± 0.17 mmol/L, the HDL/LDL was found to be 0.53 ± 0.16 and the LDL-C is given as 1.16 ± 0.28 mmol/L. In data set [2] (50 mg/kg intragastric), this molecule displayed a TC of 2.23 ± 0.53 mmol/L and a TG of 0.70 ± 0.19 mmol/L. In data set [3] (50 mg/kg intragastric), this molecule displayed an HDL-C of 1.48 ± 0.40 mmol/L, an HDL/LDL of 0.50 ± 0.13, an LDL-C of 3.04 ± 0.82 mmol/L and a TC of 4.76 ± 1.58 mmol/L. In data set [3] (50 mg/kg intragastric), the TG is 3.80 ± 1.04 mmol/L. For the same molecule, in data set [4] (50 mg/kg intragastric), the hepatic MDA was 9.35 ± 2.4 nmol/mg protein and the “hepatic SOD” value is recorded as 103.6 ± 27.9 U/g pr. In [5] (50 mg/kg intragastric), the “Fat weight (retroperitoneal fat)” value came to 0.68 ± 0.16 g/100 g body weight. In data set [6] ('rat' in hamster Table 9, 50 mg/kg intragastric), the Liver weight was determined as 4.08 ± 0.36 g/100 g body weight. The same molecule had a Liver weight in data set [6] (hyperlipidemia rats, 50 mg/kg intragastric) of 4.08 ± 0.36 g/100 g body weight. Also, the “serum ALT” value in [7] worked out at 40.3 ± 18.0 U/L. In data set [8] (50 mg/kg), this molecule gave a TC of 2.08 ± 0.49 mmol/L and a TG of 1.03 ± 0.19 mmol/L. In addition, the ALT in data set [9] turned out to be 97.3 ± 37.8 U/L. Moreover, the “hepatic SOD” value in [10] (50 mg/kg intragastric) amounted to 94.0 ± 16.3 U/g pr.

For the molecule `CCC(C)(C)C(=O)O[C@H]1C[C@@H](C)C=C2C=C[C@H](C)[C@H](CC[C@@H]3C[C@@H](O)CC(=O)O3)[C@H]21` [Simvastatin, reference compound], the retroperitoneal fat in data set [11] came out at 0.97 ± 0.19 g/100g. In [1] (2 mg/kg), this molecule yielded a TC of 4.91 ± 1.18 mmol/L and a TG of 4.58 ± 1.01 mmol/L. In data set [2] (2 mg/kg intragastric), this molecule had an FFA of 0.96 ± 0.39 mmol/L, an HDL-C of 0.59 ± 0.13 mmol/L, an HDL/LDL of 0.50 ± 0.16 and an LDL-C of 1.24 ± 0.24 mmol/L. In [2] (2 mg/kg intragastric), the TC came to 2.22 ± 0.36 mmol/L and the TG came to 0.76 ± 0.21 mmol/L. Further, in [3] (2 mg/kg intragastric), the HDL-C turned out to be 1.12 ± 0.21 mmol/L, the HDL/LDL was determined as 0.45 ± 0.12, the LDL-C was found to be 2.57 ± 0.53 mmol/L and the TC is given as 4.46 ± 1.63 mmol/L. This molecule also registered a TG in data set [3] (2 mg/kg intragastric) of 3.20 ± 1.70 mmol/L. Besides, in data set [4] (2 mg/kg intragastric), the hepatic MDA was 9.29 ± 2.73 nmol/mg protein and the “hepatic SOD” value is listed as 99.5 ± 20.2 U/g pr. The “Fat weight (retroperitoneal fat)” value in data set [5] (2 mg/kg intragastric) stood at 0.70 ± 0.28 g/100 g body weight. In data set [6] ('rat' in hamster Table 9, 2 mg/kg intragastric), this molecule showed a Liver weight of 3.96 ± 0.93 g/100 g body weight. Also, the Liver weight in data set [6] (hyperlipidemia rats, 2 mg/kg intragastric) amounted to 3.96 ± 0.93 g/100 g body weight. In data set [8] (2 mg/kg), this molecule had a TC of 2.14 ± 0.33 mmol/L and a TG of 0.94 ± 0.24 mmol/L. Also, in data set [10] (2 mg/kg intragastric), the hepatic MDA stood at 4.48 ± 0.96 nmol/mg protein and the “hepatic SOD” value is 94.6 ± 38.0 U/g pr.
